This assay deals with BDF1 mice, B16 melanoma ip, median survival T/C. Nature of the assay: NCI In Vivo Anticancer Drug Screen. Data for tumor model B16 Melanoma (intraperitoneal) in B6D2F1 (BDF1) mice. The conditions noted are these: endpoint: median survival time, higher = longer survival. The procedure, abridged:
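Survival or tumor size is measured after treatment of tumor-bearing mice and normalised to the vehicle-treated control group.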

Setting [1] is: dose: 25.0 mg/kg/injection, schedule: Q01DX009 (ip), vehicle: Klucel (hydroxypropylcellulose) (HPC).
The mark [2] stands for this setting: dose: 50.0 mg/kg/injection, schedule: Q01DX009 (ip), vehicle: Klucel (hydroxypropylcellulose) (HPC).
The mark [3] stands for this setting: dose: 200.0 mg/kg/injection, schedule: Q01DX009 (ip), vehicle: Klucel (hydroxypropylcellulose) (HPC).
Setting [4] is: dose: 100.0 mg/kg/injection, schedule: Q01DX009 (ip), vehicle: Klucel (hydroxypropylcellulose) (HPC).

Several values for one entry are separate records, joined by “and”; a condition that tells them apart may be missing. Equal entries are not always repeated. Toxic doses and inconclusive results are not listed.

T/C data for ten molecules are collected here from PubChem BioAssay AID192 (DTP/NCI, 2004).

Regarding `C/C=C/C(=O)NCC(C(C)C)/[N+]([O-])=N/O` (centres undefined), the T/C runs as follows: (dose: 6.25 mg/kg/injection, schedule: Q01DX009 (ip), vehicle: saline) 100 % of control; (dose: 12.5 mg/kg/injection, schedule: Q01DX009 (ip), vehicle: saline) 104 % of control; (dose: 25.0 mg/kg/injection, schedule: Q01DX009 (ip), vehicle: saline) 100 % of control.

With `COc1cc(C(=O)CO)cc(OC)c1OC(C)=O`, the T/C reads like this: (dose: 100.0 mg/kg/injection, schedule: Q04DX003 (ip), vehicle: saline with Tween-80) 95 % of control; (dose: 200.0 mg/kg/injection, schedule: Q04DX003 (ip), vehicle: saline with Tween-80) 87 % of control.

As for `O=C1N(c2nncs2)CCN1[N+](=O)[O-]`, the T/C is 91 % of control (dose: 12.5 mg/kg/injection, schedule: Q01DX009 (ip), vehicle: Klucel (hydroxypropylcellulose) (HPC)); 102 % of control under setting [1]; 100 % of control under setting [2]; 87 % of control under setting [3].

As for `CC1(C)OCC(CO)(Nc2nc(N3CC3)nc(N3CC3)n2)CO1`, the T/C (dose: 0.31 mg/kg/injection, schedule: Q01DX009 (ip), vehicle: saline) was 105 % of control and 112 % of control.

Turning to `CN(C)C(=S)Nc1ccccc1`, the T/C reads like this: (dose: 50.0 mg/kg/injection, schedule: Q01DX009 (ip), vehicle: saline with Tween-80) 95 % of control; (dose: 100.0 mg/kg/injection, schedule: Q01DX009 (ip), vehicle: saline with Tween-80) 95 % of control; (dose: 200.0 mg/kg/injection, schedule: Q01DX009 (ip), vehicle: saline with Tween-80) 90 % of control.

`CCCCCCCCCCCCNC(=O)Nc1cc(C)ccc1C`: the T/C under setting [4] is 92 % of control and the T/C under setting [3] was 96 % of control.

In the case of `C=C1CCN(c2ccc([N+](=O)[O-])cc2)C1=O`, the T/C is, setting by setting: (dose: 4.0 mg/kg/injection, schedule: Q01DX009 (ip), vehicle: saline + alcohol) 97 % of control; (dose: 8.0 mg/kg/injection, schedule: Q01DX009 (ip), vehicle: saline + alcohol) 107 % of control; (dose: 16.0 mg/kg/injection, schedule: Q01DX009 (ip), vehicle: saline + alcohol) 98 % of control; (dose: 32.0 mg/kg/injection, schedule: Q01DX009 (ip), vehicle: saline + alcohol) 89 % of control; (dose: 64.0 mg/kg/injection, schedule: Q01DX009 (ip), vehicle: saline + alcohol) 95 % of control.

Take `CC1(C)N=C(N)N=C(N)N1c1cccc(OCCOc2ccc([N+](=O)[O-])cc2)c1`: the T/C under setting [1] is 101 % of control, the T/C under setting [2] is 102 % of control, the T/C under setting [4] is 100 % of control and the T/C under setting [3] was 102 % of control.

Turning to `CCCCC(CC)C(O)C1CCCCC1O` (centres undefined), the T/C was 100 % of control under setting [4] and 89 % of control under setting [3].

With `COc1ccc(OC(=O)Nc2ccccc2Cl)cc1`, the T/C runs as follows: (dose: 100.0 mg/kg/injection, schedule: Q04DX003 (ip), vehicle: Klucel (hydroxypropylcellulose) (HPC)) 106 % of control; (dose: 200.0 mg/kg/injection, schedule: Q04DX003 (ip), vehicle: Klucel (hydroxypropylcellulose) (HPC)) 103 % of control; (dose: 400.0 mg/kg/injection, schedule: Q04DX003 (ip), vehicle: Klucel (hydroxypropylcellulose) (HPC)) 103 % of control.
